Columns and labels:
[1] = system: S. aureus DSM 20231; assay: Bliss interaction score (quartile over a dose matrix) (fitness difference); higher = more antagonism (negative = synergy)
Procedure, shortened: (§1)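 Fitness was OD595 at entry into stationary phase divided by the plate's robust no-drug mean and capped at 1; single-drug fitness was inferred from combination data. The Bliss score is observed minus expected (product) fitness, summarised by quartiles over technical, biological and donor/recipient replicates.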

[2] = system: S. pneumoniae D39V; assay: as above
Procedure, shortened: as §1

[3] = system: B. subtilis 168; assay: as above
Procedure, shortened: as §1

[4] = system: S. aureus Newman; assay: as above
Procedure, shortened: as §1

[5] = system: S. aureus DSM 20231; assay: fitness (endpoint OD595 vs no drug) (fraction); higher = more growth
Procedure, shortened: (§2)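 Cultures at OD595 0.01 were dispensed into 384-well plates in TSB, LB Lennox or CY and incubated at 37 °C. Every 30 min for 14 h, OD595 was read and corrected by the first reading. Fitness is the optical density at entry into stationary phase relative to the robust mean of no-drug control wells, capped at 1.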

[6] = system: S. pneumoniae D39V; assay: as above
Procedure, shortened: as §2

[7] = system: B. subtilis 168; assay: as above
Procedure, shortened: as §2

[8] = system: S. aureus Newman; assay: as above
Procedure, shortened: as §2
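For Bliss interaction score (quartile over a dose matrix) in this document: first quartile when negative (synergy) and third quartile when positive (antagonism).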

C[C@@H]1O[C@@H]1P(=O)(O)O [Fosfomycin] + CN(N=O)C(=O)N[C@@H](C=O)[C@@H](O)[C@H](O)[C@H](O)CO [Streptozotocin]
Details | Bliss interaction score
[1] | -0.0585
[2] | -0.0567
[3] | -0.108
[4] | -0.0994

fitness
Details | partner 0.15 µg/mL | partner 0.3 µg/mL | partner 0.6 µg/mL | partner 1.2 µg/mL | partner 2.4 µg/mL | partner 4.8 µg/mL
[5], first compound 0.781 µg/mL | 0.717 | 0.627 | 0.549 | – | – | –
[5], first compound 1.562 µg/mL | 0.59 | 0.533 | 0.509 | – | – | –
[5], first compound 3.124 µg/mL | 0.476 | 0.441 | 0.292 | – | – | –
[6], first compound 1.25 µg/mL | – | – | – | 0.898 | 0.934 | 0.952
[6], first compound 2.5 µg/mL | – | – | – | 0.899 | 0.923 | 0.952
[6], first compound 5 µg/mL | – | – | – | 0.732 | 0.703 | 0.747
[7], first compound 1.562 µg/mL | 0.682 | 0.688 | 0.69 | – | – | –
[7], first compound 3.124 µg/mL | 0.609 | 0.588 | 0.579 | – | – | –
[7], first compound 6.248 µg/mL | 0.432 | 0.42 | 0.435 | – | – | –
[8], first compound 0.781 µg/mL | 0.526 | 0.501 | 0.462 | – | – | –
[8], first compound 1.562 µg/mL | 0.491 | 0.455 | 0.342 | – | – | –
[8], first compound 3.124 µg/mL | 0.129 | 0.146 | 0.0801 | – | – | –

Cc1ncc([N+](=O)[O-])n1CCO [Metronidazole] + CN(N=O)C(=O)N[C@@H](C=O)[C@@H](O)[C@H](O)[C@H](O)CO [Streptozotocin]
Details | Bliss interaction score
[1] | -0.0474
[2] | 0.0474
[3] | -0.0488
[4] | 0.0626

fitness
Details | first compound 0.625 µg/mL | first compound 1.073 µg/mL | first compound 1.25 µg/mL | first compound 2.145 µg/mL | first compound 2.5 µg/mL | first compound 4.29 µg/mL
[5], partner 0.15 µg/mL | 0.876 | – | 0.888 | – | 0.905 | –
[5], partner 0.3 µg/mL | 0.791 | – | 0.752 | – | 0.831 | –
[5], partner 0.6 µg/mL | 0.683 | – | 0.701 | – | 0.734 | –
[6], partner 1.2 µg/mL | – | 0.942 | – | 0.934 | – | 0.96
[6], partner 2.4 µg/mL | – | 0.961 | – | 0.904 | – | 0.743
[6], partner 4.8 µg/mL | – | 0.966 | – | 0.946 | – | 0.979
[8], partner 0.15 µg/mL | 0.838 | – | 0.833 | – | 0.816 | –
[8], partner 0.3 µg/mL | 0.725 | – | 0.742 | – | 0.731 | –
[8], partner 0.6 µg/mL | 0.579 | – | 0.568 | – | 0.591 | –

fitness, one replicate
Details | partner 0.15 µg/mL | partner 0.3 µg/mL | partner 0.6 µg/mL | partner 1.2 µg/mL | partner 2.4 µg/mL | partner 4.8 µg/mL
[6], first compound 1.25 µg/mL | – | – | – | ≥ 1 | ≥ 1 | ≥ 1
[6], first compound 2.5 µg/mL | – | – | – | 0.98 | ≥ 1 | ≥ 1
[6], first compound 5 µg/mL | – | – | – | 0.959 | ≥ 1 | ≥ 1
[7], first compound 0.625 µg/mL | ≥ 1 | ≥ 1 | ≥ 1 | – | – | –
[7], first compound 1.25 µg/mL | 0.91 | ≥ 1 | ≥ 1 | – | – | –
[7], first compound 2.5 µg/mL | 0.956 | 0.941 | 0.976 | – | – | –
[8], first compound 0.781 µg/mL | 0.907 | 0.717 | 0.523 | – | – | –
[8], first compound 1.562 µg/mL | 0.875 | 0.722 | 0.519 | – | – | –
[8], first compound 3.124 µg/mL | 0.796 | 0.709 | 0.505 | – | – | –

C[C@@H]1O[C@@H]1P(=O)(O)O [Fosfomycin] + Cc1cc(NS(=O)(=O)c2ccc(N)cc2)no1 [Sulfamethoxazol]
Details | Bliss interaction score
[1] | -0.0688
[2] | -0.0416
[3] | -0.0756
[4] | 0.0933

fitness
Details | partner 1 µg/mL | partner 2 µg/mL | partner 4 µg/mL
[5], first compound 0.781 µg/mL | 0.709 | 0.696 | 0.678
[5], first compound 1.562 µg/mL | 0.547 | 0.581 | 0.581
[5], first compound 3.124 µg/mL | 0.49 | 0.503 | 0.509
[6], first compound 1.25 µg/mL | 0.957 | 0.935 | 0.955
[6], first compound 2.5 µg/mL | 0.918 | 0.925 | 0.943
[6], first compound 5 µg/mL | 0.757 | 0.756 | 0.78
[7], first compound 1.562 µg/mL | 0.652 | 0.673 | 0.679
[7], first compound 3.124 µg/mL | 0.548 | 0.557 | 0.516
[7], first compound 6.248 µg/mL | 0.489 | 0.378 | 0.379
[8], first compound 0.781 µg/mL | 0.627 | 0.705 | 0.71
[8], first compound 1.562 µg/mL | 0.513 | 0.572 | 0.496
[8], first compound 3.124 µg/mL | 0.211 | – | 0.141

fitness, one replicate
Details | first compound 0.781 µg/mL | first compound 1.562 µg/mL | first compound 3.124 µg/mL | first compound 6.248 µg/mL
[7], partner 0.5 µg/mL | – | 0.794 | 0.686 | 0.592
[8], partner 8 µg/mL | 0.782 | 0.733 | 0.519 | –

COc1ccc(C[C@H](N)C(=O)N[C@H]2[C@@H](O)[C@H](n3cnc4c(N(C)C)ncnc43)O[C@@H]2CO)cc1 [Puromycin] + Cc1cc(NS(=O)(=O)c2ccc(N)cc2)no1 [Sulfamethoxazol]
Details | Bliss interaction score
[1] | 0.0554
[2] | 0.113
[3] | 0.0514
[4] | 0.0386

fitness
Details | partner 1 µg/mL | partner 2 µg/mL | partner 4 µg/mL
[5], first compound 0.39 µg/mL | 0.998 | 0.996 | ≥ 1
[5], first compound 0.78 µg/mL | 0.988 | ≥ 1 | 0.995
[5], first compound 1.56 µg/mL | 0.952 | 0.992 | 0.961
[6], first compound 1 µg/mL | 0.945 | 0.934 | 0.961
[6], first compound 2 µg/mL | 0.948 | 0.927 | 0.932
[6], first compound 4 µg/mL | 0.799 | 0.807 | 0.947
[7], first compound 0.39 µg/mL | 0.934 | 0.947 | 0.891
[7], first compound 0.78 µg/mL | 0.921 | 0.863 | 0.949
[7], first compound 1.56 µg/mL | 0.968 | 0.888 | 0.941
[8], first compound 0.78 µg/mL | 0.996 | 0.943 | 0.958
[8], first compound 1.56 µg/mL | 0.966 | 0.968 | ≥ 1

one replicate
Details | fitness
[5], first compound 3.12 µg/mL, partner 1 µg/mL | 0.884
[5], first compound 3.12 µg/mL, partner 2 µg/mL | 0.864
[5], first compound 3.12 µg/mL, partner 4 µg/mL | 0.969
[5], first compound 6.24 µg/mL, partner 1 µg/mL | 0.722
[5], first compound 6.24 µg/mL, partner 2 µg/mL | 0.706
[5], first compound 6.24 µg/mL, partner 4 µg/mL | 0.736
[7], first compound 0.39 µg/mL, partner 0.5 µg/mL | ≥ 1
[7], first compound 0.78 µg/mL, partner 0.5 µg/mL | 0.996
[7], first compound 1.56 µg/mL, partner 0.5 µg/mL | 0.992
[8], first compound 0.39 µg/mL, partner 8 µg/mL | 0.916
[8], first compound 0.78 µg/mL, partner 8 µg/mL | 0.931
[8], first compound 1.56 µg/mL, partner 8 µg/mL | 0.983
